{
  "source": "BindingDB's records for doi:10.1038/sj.npp.1300203",
  "about": "(Case Western Reserve University, 2003)",
  "key": {"[1]": {"target": "T1, 5-hydroxytryptamine receptor 3A (Rattus norvegicus, UniProt P35563)", "T1 sequence (P35563 whole entry)": "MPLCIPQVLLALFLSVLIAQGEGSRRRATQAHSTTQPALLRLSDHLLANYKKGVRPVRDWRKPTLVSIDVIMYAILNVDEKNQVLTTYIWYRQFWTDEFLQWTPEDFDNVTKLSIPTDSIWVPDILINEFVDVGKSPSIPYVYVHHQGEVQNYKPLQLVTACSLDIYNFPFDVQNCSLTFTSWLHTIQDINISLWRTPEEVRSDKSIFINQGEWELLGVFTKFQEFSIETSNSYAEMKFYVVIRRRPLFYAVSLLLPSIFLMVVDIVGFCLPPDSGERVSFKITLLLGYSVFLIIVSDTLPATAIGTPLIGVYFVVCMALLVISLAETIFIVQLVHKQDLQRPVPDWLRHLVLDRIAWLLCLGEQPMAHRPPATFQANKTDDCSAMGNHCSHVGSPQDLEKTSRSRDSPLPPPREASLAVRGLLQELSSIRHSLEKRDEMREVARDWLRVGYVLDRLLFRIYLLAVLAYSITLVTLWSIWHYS"}, "[2]": {"target": "Protein kinase C alpha type (Homo sapiens, UniProt P17252)"}, "Histamine H3 receptor": {"target": "Histamine H3 receptor (Cavia porcellus, UniProt Q9JI35)", "sequence (Q9JI35 whole entry)": "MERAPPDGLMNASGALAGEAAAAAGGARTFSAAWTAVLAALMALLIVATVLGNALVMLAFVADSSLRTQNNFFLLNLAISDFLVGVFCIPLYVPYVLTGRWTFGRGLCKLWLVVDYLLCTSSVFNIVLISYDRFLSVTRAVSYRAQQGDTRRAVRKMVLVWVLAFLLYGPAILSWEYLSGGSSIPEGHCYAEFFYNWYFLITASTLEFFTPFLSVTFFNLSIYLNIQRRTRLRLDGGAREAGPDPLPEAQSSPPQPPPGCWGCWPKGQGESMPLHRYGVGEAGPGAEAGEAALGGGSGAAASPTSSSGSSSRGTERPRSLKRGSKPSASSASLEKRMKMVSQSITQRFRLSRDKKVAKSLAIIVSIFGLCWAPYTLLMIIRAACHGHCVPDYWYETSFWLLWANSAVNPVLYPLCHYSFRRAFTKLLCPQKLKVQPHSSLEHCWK"}, "[3]": {"target": "Protein kinase C gamma type (Homo sapiens, UniProt P05129)"}, "Histamine H4 receptor": {"target": "Histamine H4 receptor (Homo sapiens, UniProt Q9H3N8)", "sequence (Q9H3N8 whole entry)": "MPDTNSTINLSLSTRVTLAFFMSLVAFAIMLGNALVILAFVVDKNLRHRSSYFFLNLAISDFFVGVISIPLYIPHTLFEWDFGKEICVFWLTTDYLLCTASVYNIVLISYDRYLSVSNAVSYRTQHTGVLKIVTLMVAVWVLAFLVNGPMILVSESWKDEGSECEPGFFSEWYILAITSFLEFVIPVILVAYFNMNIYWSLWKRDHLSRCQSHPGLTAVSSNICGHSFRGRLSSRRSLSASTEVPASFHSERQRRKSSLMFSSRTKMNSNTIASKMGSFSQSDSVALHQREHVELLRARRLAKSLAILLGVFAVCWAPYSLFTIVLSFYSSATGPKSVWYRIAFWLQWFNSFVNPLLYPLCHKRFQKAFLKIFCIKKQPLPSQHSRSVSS"}, "[4]": {"target": "Prostaglandin E2 receptor EP4 subtype (Homo sapiens, UniProt P35408)", "sequence (P35408 whole entry)": "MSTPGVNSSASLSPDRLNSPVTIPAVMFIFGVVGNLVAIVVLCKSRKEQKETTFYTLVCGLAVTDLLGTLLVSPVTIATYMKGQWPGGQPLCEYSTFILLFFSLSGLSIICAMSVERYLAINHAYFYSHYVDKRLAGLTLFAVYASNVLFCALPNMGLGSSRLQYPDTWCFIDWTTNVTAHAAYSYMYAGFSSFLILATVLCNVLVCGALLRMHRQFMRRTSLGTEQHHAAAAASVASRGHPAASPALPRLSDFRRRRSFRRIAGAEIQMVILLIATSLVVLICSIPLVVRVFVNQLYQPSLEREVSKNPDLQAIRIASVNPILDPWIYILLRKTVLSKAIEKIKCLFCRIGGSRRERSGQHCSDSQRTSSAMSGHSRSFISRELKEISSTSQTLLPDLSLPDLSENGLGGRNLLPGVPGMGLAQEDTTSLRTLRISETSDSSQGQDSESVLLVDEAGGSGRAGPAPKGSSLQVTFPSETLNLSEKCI"}, "[5]": {"target": "Gamma-aminobutyric acid type B receptor subunit 1 (UniProt Q9Z0U4)", "sequence (Q9Z0U4 whole entry)": "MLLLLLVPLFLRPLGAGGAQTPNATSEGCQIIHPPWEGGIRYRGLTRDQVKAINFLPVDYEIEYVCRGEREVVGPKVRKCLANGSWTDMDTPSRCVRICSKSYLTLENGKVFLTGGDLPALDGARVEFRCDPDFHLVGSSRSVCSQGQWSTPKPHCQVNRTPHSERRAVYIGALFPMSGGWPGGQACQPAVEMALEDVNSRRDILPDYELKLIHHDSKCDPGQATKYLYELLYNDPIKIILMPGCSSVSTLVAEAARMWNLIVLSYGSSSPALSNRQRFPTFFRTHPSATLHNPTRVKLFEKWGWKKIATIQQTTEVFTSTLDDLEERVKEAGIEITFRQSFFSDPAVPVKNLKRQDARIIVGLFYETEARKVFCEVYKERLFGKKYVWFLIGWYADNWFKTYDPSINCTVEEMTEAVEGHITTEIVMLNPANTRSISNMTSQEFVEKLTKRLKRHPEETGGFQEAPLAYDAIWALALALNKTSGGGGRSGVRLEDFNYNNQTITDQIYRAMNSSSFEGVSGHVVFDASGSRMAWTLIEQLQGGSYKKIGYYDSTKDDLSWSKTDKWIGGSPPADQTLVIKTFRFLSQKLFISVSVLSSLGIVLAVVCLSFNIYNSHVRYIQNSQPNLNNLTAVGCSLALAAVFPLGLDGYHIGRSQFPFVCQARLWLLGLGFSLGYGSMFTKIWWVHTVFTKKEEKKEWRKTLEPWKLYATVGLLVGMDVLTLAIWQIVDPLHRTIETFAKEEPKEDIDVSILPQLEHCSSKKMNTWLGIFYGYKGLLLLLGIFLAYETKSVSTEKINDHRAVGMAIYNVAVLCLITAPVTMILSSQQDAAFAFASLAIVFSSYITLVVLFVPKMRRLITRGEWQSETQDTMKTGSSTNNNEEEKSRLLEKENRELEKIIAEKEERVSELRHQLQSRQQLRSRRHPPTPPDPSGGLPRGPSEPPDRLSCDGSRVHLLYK"}, "[6]": {"target": "T2, Prostaglandin E2 receptor EP3 subtype (Homo sapiens, UniProt P43115)", "T2 sequence (P43115 whole entry)": "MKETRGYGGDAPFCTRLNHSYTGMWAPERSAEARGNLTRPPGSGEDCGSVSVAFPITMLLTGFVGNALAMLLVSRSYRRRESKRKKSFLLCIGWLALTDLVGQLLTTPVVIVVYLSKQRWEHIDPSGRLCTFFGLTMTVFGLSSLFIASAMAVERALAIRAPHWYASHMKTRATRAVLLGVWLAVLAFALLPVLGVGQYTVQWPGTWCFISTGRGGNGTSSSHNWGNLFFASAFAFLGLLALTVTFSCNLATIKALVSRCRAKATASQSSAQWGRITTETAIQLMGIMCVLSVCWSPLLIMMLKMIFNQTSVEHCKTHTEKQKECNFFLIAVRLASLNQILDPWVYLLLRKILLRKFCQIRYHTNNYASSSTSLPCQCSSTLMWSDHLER"}},
  "data": [
    {"molecule": "O=C1CCc2ccc(OCCCCN3CCN(c4cccc(Cl)c4Cl)CC3)cc2N1", "note": "[7-{4-[4-(2,3-dichlorophenyl)piperazin-1-yl]butoxy}-3,4-dihydroquinolin-2(1H)-one]", "values": [
      {"measurement": "Ki", "setting": "[1]", "value": 630, "unit": "nM"},
      {"measurement": "Ki", "setting": "[2]", "value": "> 10", "unit": "µM"},
      {"measurement": "Ki", "setting": "Histamine H3 receptor", "value": 224, "unit": "nM"},
      {"measurement": "Ki", "setting": "[3]", "value": 8, "unit": "µM"},
      {"measurement": "Ki", "setting": "Histamine H4 receptor", "value": "> 10", "unit": "µM"},
      {"measurement": "Ki", "setting": "[4]", "value": "> 10", "unit": "µM"},
      {"measurement": "Ki", "setting": "[5]", "value": "> 10", "unit": "µM"},
      {"measurement": "Ki", "setting": "[6]", "value": "> 10", "unit": "µM"}
    ]}
  ]
}
